Assay results as given in patent US20090047221A1 (NIPRI LIMITED, priority 2004, published 2009).
Like-named read-outs stand apart in the source and are kept apart here. One block for each molecule: values may come before it.

How the values were obtained:
Type in all cases: cell-based
[1] = Synergy with known cancer drugs measured using an MTT assay (FIGS. 9a-9c); settings: ALM-54 at 0.5 μg
Text: (§1) The MTT assay was used initially to determine the anti-proliferative activity of the test compounds. In the MTT assay a yellow thiazolyl blue tetrazolium bromide salt (MTT) is reduced, in metabolically active cells, to form insoluble purple formazan crystals which are solubilised by the addition of dimethyl sulphoxide (DMSO). Absorbance readings can then be determined spectrophotometrically and a relationship established between control untreated cells and drug treated cells enabling the quantification of anti-proliferative changes as a result of drug treatment (Mosmann, 1983).
(§2) Wells containing medium only were used as blanks. Following the attachment period, cells were treated with appropriate drug concentrations (20 μl added per well). 40 mg/ml stock drug solutions, in DMSO, were stored at −20° C. and on the day of drug treatment working solutions of 4 mg/ml were prepared in medium which was further diluted to achieve final drug dilution volumes of 20 μl. Initial screening was determined over a concentration range of 1-200 μg/ml. For potent compounds the assay was repeated over a narrower concentration range to determine accurate IC50 values. Cells were exposed to drug for 96 h continual exposure (37° C., 5% CO2). Following the 96 h incubation, 50 μl MTT solution (1 g MTT/500 ml PBS) was added per well and the plates were further incubated for 4 h (37° C., 5% CO2). After incubation the MTT and medium was removed from the wells and 100 μl DMSO added per well. Plates were agitated on an orbital mixer platform (Stuart Scientific) for 10 minutes. Absorbance was measured at 570 nm on a Biotrak II (Amersham Bioscience) plate reader. IC50 values were calculated comparing control and drug treated cells.

PNT2 = assay: MTT assay (anti-proliferative activity)
Text: as §1, §2

HCT−/− = assay: MTT assay (anti-proliferative activity)
Text: as §1, §2

H23 = assay: MTT assay (anti-proliferative activity)
Text: as §1, §2

HT29 = assay: MTT assay (anti-proliferative activity)
Text: as §1, §2

HCT+/+ = assay: MTT assay (anti-proliferative activity)
Text: as §1, §2

RKO = assay: MTT assay (anti-proliferative activity)
Text: as §1, §2

PC3 = assay: MTT assay (anti-proliferative activity)
Text: as §1, §2

LNCAP = assay: MTT assay (anti-proliferative activity)
Text: as §1, §2

ZR-75-1 = assay: MTT assay (anti-proliferative activity)
Text: as §1, §2

MalMe3M = assay: MTT assay (anti-proliferative activity); settings: 96 h continual exposure, read-out: IC 50 MalMe3M
Method: (§3) The MTT assay was used initially to determine the anti-proliferative activity of the test compounds. In the MTT assay a yellow thiazolyl blue tetrazolium bromide salt (MTT) is reduced, in metabolically active cells, to form insoluble purple formazan crystals which are solubilised by the addition of dimethyl sulphoxide (DMSO).
as §2, with “For potent compounds the assay was repeated over a narrower concentration range to determine accurate IC50 values.” left out

MDA-MB-468 = assay: MTT assay (anti-proliferative activity); settings: read-out: IC 50 MDA-MB-468
Method: as §3
as §2, with “For potent compounds the assay was repeated over a narrower concentration range to determine accurate IC50 values.” left out

MCF-7 = assay: MTT assay (anti-proliferative activity); settings: read-out: IC 50 MCF-7
Method: as §3
as §2, with “For potent compounds the assay was repeated over a narrower concentration range to determine accurate IC50 values.” left out

SkMel28 = assay: MTT assay (anti-proliferative activity); settings: read-out: IC 50 SkMel28
Method: as §3
as §2, with “For potent compounds the assay was repeated over a narrower concentration range to determine accurate IC50 values.” left out

[2] = test system: breast cancer (MDA-MB-468 and MCF-7 cell lines) and melanoma cell lines (MalMe3, SkMe128); assay: Cell cycle analysis by flow cytometry (propidium iodide); apoptosis as cells in sub G0/G1 (pre G0) peak; settings: following treatment with IC70 concentration of compound
Method: Assessment of cell cycle analysis was performed using propidium iodide staining of cells and subsequent analysis on a Beckton Dickinson flow cytometer. […] The following day the medium was removed and replaced with 5 ml medium per flask containing the appropriate drug concentrations to be tested. 40 mg/ml stock drug solutions in DMSO were stores at −20° C. and on the day off drug treatment working solutions of 4 mg/ml were prepared in medium from which the final drug dilutions were prepared. Cells were maintained in an incubator (37° C., 5% CO2) for up to 96 h post treatment. After 24, 48, 72 or 96 h time points the medium from each flask was collected, stored on ice, and the remaining cells in the flasks were trypsinised by aiding 1 ml trypsin-EDTA solution to each flask. Cells were replaced into the incubator for 10 min to allow them to detach from the plastic plate. The cells in each flask were collected by adding the appropriate medium removed from each flask back to the corresponding flask and then placing medium containing both the attached and floating cells into a 15 ml tube. Cells were centrifuged at 4° C. for 5 min at 1500 rpm and the supernatant removed from each tube. The remaining cells were washed twice in ice cold PBS and then fixed in ice cold methanol overnight at −20° C. On the day of analysis of cells each tube was centrifuged at 4° C. for 5 min at 1500 rpm and the methanol removed and the cells washed twice in ice cold PBS. 20 μl propidium iodide solution (1 mg/ml) and 20 μl RNase A (10 mg/ml solution) were added to 1 ml PBS per tube and the cells were incubated for 30 min at 37° C. Cells were analysed on the flow cytometer and cell cycle changes were assessed.

H157 = assay: MTT assay (anti-proliferative activity); settings: Homo sapiens, NCI-H157
Text: as §1, §2

[3] = test system: caspase 3 in MDA-MB-468 breast cancer cells; assay: Western blotting (immunoblot), caspase 3 cleavage; settings: concentrations similar to those required to kill MDA-MB-468 breast cancer cells
Method: Western blotting was used to assess drug induced changes of cellular proteins. Cells were seeded in P90 tissue culture vessels and treated with drugs at a range of concentrations for 72 and 96 h. Following incubation of cells for the required duration the medium was collected from the cells and attached cells were scraped from the tissue culture vessel and collected into the medium. Excess medium was removed by centrifugation at 4° C. for 5 minutes at […] and the supernatant removed from each tube. The remaining cells were washed twice in ice cold PBS and then incubated on ice with protein extraction buffer (10 mM Tris-HCl, 150 mM NaCl, 1 mM EDTA, 1% Triton-X, 0.1% SDS and a protease inhibitor) for 20 min. Cells were sonicated and centrifuged for 5 min at 4° C. and the supernatant removed for subsequent analysis. Protein samples were stored at −70° C. until analyses. 8, 10 or 12% acrylamide gels were prepared and used depending on size of protein to be determined. Protein concentrations were determined using the BCA™ (bicinchoninic acid) protein determination assay (Pierce) according to manufacturer's guidelines and 30-50 μg protein samples were loaded and separated on the acrylamide gels. Gels were ran at 150V for approximately 2 h at 4° C. Following separation of the protein samples each was transferred to a PVDF transfer membrane (Hybond-P) overnight at 4° C. at 40V. […]

SMILES: CC1Cc2ccc(C(=O)NC(Cc3ccccc3)C(=O)O)c(O)c2C(=O)O1 (mixture of isomers) [ALM-54]
synergy with irinotecan ([1]; FIG. 9a): synergy
synergy with vinorelbine ([1]; FIG. 9b): synergy
synergy with cisplatin ([1]; FIG. 9c): synergy
IC50 (PNT2): 5.4 µM
IC50 (HCT−/−): 10.8 µM
IC50 (H23): 2 µM
IC50 (HT29): 1.3 µM
IC50 (HCT+/+): 16.3 µM
IC50 (RKO): 2.7 µM
IC50 (PC3): 5.4 µM
IC50 (LNCAP): 4.7 µM
IC50 (ZR-75-1): 0.13 µM
IC50 (MalMe3M): 13.5 µM
IC50 (MDA-MB-468; 96 h continual exposure): 10.8 µM
IC50 (MCF-7; 96 h continual exposure): 16.2 µM
IC50 (SkMel28; 96 h continual exposure): 46 µM
% Cells in Pre G0 phase of Cell Cycle [2]: 12.8%

IC50 (HCT−/−): > 561 µM
IC50 (HT29; Homo sapiens, HT-29): 561 µM
IC50 (HCT+/+): > 561 µM
IC50 (H157): > 561 µM
IC50 (PC3; Homo sapiens, PC-3): 421 µM
IC50 (LNCAP; Homo sapiens, LNCaP): > 561 µM
IC50 (MDA-MB-468; Homo sapiens, MDA-MB-468, 96 h continual exposure): 283 µM
IC50 (MCF-7; Homo sapiens, MCF7, 96 h continual exposure): 946 µM
SMILES: CC1Cc2cccc(O)c2C(=O)O1 (racemic) [ALM-9, Racemic Mellein]
IC50 (PNT2; Homo sapiens, PNT2): 421 µM
IC50 (H23; Homo sapiens, NCI-H23): > 561 µM
IC50 (RKO; Homo sapiens, RKO): 494 µM
IC50 (ZR-75-1; Homo sapiens, ZR-75-1): 281 µM
IC50 (MalMe3M; Homo sapiens, Malme-3M): > 960 µM
IC50 (SkMel28; Homo sapiens, SK-MEL-28, 96 h continual exposure): 821 µM
% Cells in Pre G0 phase of Cell Cycle [2]: 30.4%
cleavage and activation of caspase 3 (immunoblot) [3]: promotes the cleavage and thus the activation of caspase 3
